Reference: PMC7845643, “Predictive Rules of Efflux Inhibition and Avoidance in Pseudomonas aeruginosa” (mBio, 2021)
Values after ≈ are worked out from the molar mass of the structure shown.

Assays:
[1] = tested on: T1, Pseudomonas aeruginosa PAO1; experiment: microbe, parasite or virus in culture; set-up: 2-fold serial broth dilution MIC (at least 90% growth inhibition); details: PAO1, read-out: MICs (mg/L) in strains: / PAO1
T1 construct: PAO1 (attTn7::mini-Tn7T-Gm-lacIq-pLAC-MCS)
Procedure: (§1) Antibacterial activities were tested using a 2-fold serial dilution broth assay as described previously ([13]). The antibacterial activities are expressed as MIC (defined as at least 90% of growth inhibition) and IC50. To follow the fate of compounds in cells and to identify descriptors associated with different permeation barriers, we first separated the contributions of the OM barrier and active efflux in measured activities of compounds. For this purpose, the bacterial growth-inhibitory activities for all Rempex compounds were analyzed in four P. aeruginosa strains: the wild-type strain, PAO1; the PΔ6 strain, lacking six efflux pumps (ΔmexAB-oprM, ΔmexCD-oprJ, ΔmexXY, ΔmexJKL, ΔmexEF-oprN, and ΔtriABC); and their hyperporinated derivatives, PAO1-Pore and PΔ6-Pore, respectively ([39]). These strains were previously shown to differ dramatically in their susceptibilities to various classes of antibiotics because of differences in efflux proficiency and permeation across the OM ([13], [15]). To normalize to the differences in target inhibition potency among compounds, our key measured parameters were efflux ratios and OM barrier ratios, defined as the 50% inhibitory concentration for the parent/mutant (IC50 parent/IC50 mutant), for efflux mutants and hyperporinated mutants, respectively (see Table S1 in the supplemental material). More specifically, the IC50 ratios for PAO1/PAO1-Pore and PΔ6/PΔ6-Pore define the contribution of the OM barrier to the activities of compounds in the presence and absence of efflux, respectively. […] Activities of only a few compounds were slightly affected by the OM. Among them are compounds 58 and 46 (Fig. 1A), whose activity is enhanced by hyperporination of efflux-deficient PΔ6-Pore cells by 16- and 8-fold, respectively.

[2] = tested on: T2, Pseudomonas aeruginosa PΔ6; experiment: microbe, parasite or virus in culture; set-up: 2-fold serial broth dilution MIC (at least 90% growth inhibition); details: read-out: MICs (mg/L) in strains: / D6
T2 construct: PΔ6 (PAO1 ΔmexAB-oprM ΔmexCD-oprJ ΔmexXY ΔmexJKL ΔmexEF-oprN ΔtriABC, efflux-deficient)
Procedure: as §1

[3] = tested on: T3, Pseudomonas aeruginosa PΔ6-Pore; experiment: microbe, parasite or virus in culture; set-up: 2-fold serial broth dilution MIC (at least 90% growth inhibition); details: read-out: MICs (mg/L) in strains: / D6-Pore
T3 construct: PΔ6-Pore (six efflux pumps deleted, hyperporinated with fhuADCΔ4L)
Procedure: as §1

[4] = tested on: T4, Pseudomonas aeruginosa PAO1-Pore; experiment: microbe, parasite or virus in culture; set-up: 2-fold serial broth dilution MIC (at least 90% growth inhibition); details: PAO1, read-out: MICs (mg/L) in strains: / PAO1-Pore
T4 construct: PAO1-Pore (hyperporinated, attTn7::mini-Tn7T-Gmr-lacIq-pLAC-fhuADCΔ4L)
Procedure: as §1

MexB = target: T5, MexB (Pseudomonas aeruginosa, UniProt P52002); experiment: SPR (Biacore T200, CM5 chip, immobilized MexB, kinetic fit); type: binding
T5 construct: purified MexB immobilized by amine coupling
T5 sequence (P52002 whole entry): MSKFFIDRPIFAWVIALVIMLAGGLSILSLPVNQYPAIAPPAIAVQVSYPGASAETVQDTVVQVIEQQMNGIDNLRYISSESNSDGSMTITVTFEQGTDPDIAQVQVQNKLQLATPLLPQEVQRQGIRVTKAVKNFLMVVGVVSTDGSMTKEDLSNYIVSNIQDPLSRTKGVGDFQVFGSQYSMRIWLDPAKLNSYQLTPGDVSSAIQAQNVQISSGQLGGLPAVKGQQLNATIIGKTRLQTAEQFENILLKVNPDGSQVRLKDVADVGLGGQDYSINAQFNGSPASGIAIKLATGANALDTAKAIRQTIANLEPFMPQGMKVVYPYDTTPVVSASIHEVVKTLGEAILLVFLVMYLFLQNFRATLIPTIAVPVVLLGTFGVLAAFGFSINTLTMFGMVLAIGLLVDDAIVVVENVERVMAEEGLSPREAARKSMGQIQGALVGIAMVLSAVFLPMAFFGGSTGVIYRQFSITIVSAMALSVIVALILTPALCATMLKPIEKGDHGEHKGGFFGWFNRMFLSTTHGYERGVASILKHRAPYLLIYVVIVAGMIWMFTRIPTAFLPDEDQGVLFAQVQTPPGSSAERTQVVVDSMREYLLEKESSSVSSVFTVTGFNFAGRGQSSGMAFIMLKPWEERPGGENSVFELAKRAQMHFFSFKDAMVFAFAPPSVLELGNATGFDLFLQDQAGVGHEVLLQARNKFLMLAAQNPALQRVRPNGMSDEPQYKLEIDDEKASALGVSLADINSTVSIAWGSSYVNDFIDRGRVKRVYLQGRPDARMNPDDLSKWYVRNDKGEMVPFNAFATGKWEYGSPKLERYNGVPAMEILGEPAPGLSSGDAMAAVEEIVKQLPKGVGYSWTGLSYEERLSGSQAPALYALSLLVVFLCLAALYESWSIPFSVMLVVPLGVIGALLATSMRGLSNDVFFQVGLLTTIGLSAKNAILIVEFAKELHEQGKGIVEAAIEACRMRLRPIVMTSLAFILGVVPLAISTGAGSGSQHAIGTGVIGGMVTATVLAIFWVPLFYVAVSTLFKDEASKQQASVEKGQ

Row | Structure (SMILES) | MIC [1] [mg/L] | MIC [2] [mg/L] | MIC [3] [mg/L] | MIC [4] [mg/L] | Kd (MexB) [µM]
1 | CO[C@@]1(NC(=O)C2SC(=C(C(N)=O)C(=O)O)S2)C(=O)N2C(C(=O)O)=C(CSc3nnnn3C)CS[C@@H]21 (stereo partly drawn) [OU-654, cefotetan] | > 400 | 100 (≈ 174 µM) | 12.5 (≈ 21.7 µM) | 200 (≈ 347 µM) | –
2 | CO/N=C(\C(=O)N[C@@H]1C(=O)N2C(C(=O)O)=C(CSc3nc(=O)c(O)nn3C)CS[C@H]12)c1csc(N)n1 [OU-640, ceftriaxone] | 15.6 (≈ 28.1 µM) | 3.9 (≈ 7.03 µM) | 0.06 (≈ 0.108 µM) | 0.97 (≈ 1.75 µM) | –
3 | Cc1cc(O)c(C(=O)N[C@@H](C(=O)N[C@@H]2C(=O)N3C(C(=O)O)=C(CSc4nnnn4C)CS[C@H]23)c2ccc(O)cc2)cn1 [OU-031452, cefpiramide] | > 1000 | > 1000 | 250 (≈ 408 µM) | > 1000 | –
4 | CCN1CCN(C(=O)N[C@@H](C(=O)N[C@@H]2C(=O)N3C(C(=O)O)=C(CSc4nnnn4C)CS[C@H]23)c2ccc(O)cc2)C(=O)C1=O [OU-634, cefoperazone] | 3.9 (≈ 6.04 µM) | – | 0.97 (≈ 1.5 µM) | 0.97 (≈ 1.5 µM) | –
5 | Nc1nc(/C(=C/CC(=O)O)C(=O)N[C@@H]2C(=O)N3C(C(=O)O)=CCS[C@H]23)cs1 [OU-668, ceftibuten] | > 2000 | 1000 (≈ 2440 µM) | 128 (≈ 312 µM) | 2000 (≈ 4870 µM) | –
6 | C[N+](CCN)(CCN)CCC[C@H](N)C(=O)N[C@H](CCc1ccc(C(F)(F)F)cc1)C(=O)Nc1cnc2ccccc2c1 [compound 17] | – | – | – | – | 24.2
7 | CO[C@@]1(NC(=O)C(C(=O)O)c2ccc(O)cc2)C(=O)N2C(C(=O)O)=C(CSc3nnnn3C)CO[C@@H]21 (stereo partly drawn) [OU-672, moxalactam] | 62.5 (≈ 120 µM) | 62.5 (≈ 120 µM) | 0.97 (≈ 1.86 µM) | 15.6 (≈ 30 µM) | –
8 | O=C(O)C1=C(CSc2nnnn2CS(=O)(=O)O)CS[C@@H]2[C@H](NC(=O)[C@H](O)c3ccccc3)C(=O)N12 [OU-666, cefonicid] | 62.5 (≈ 115 µM) | – | 3.9 (≈ 7.19 µM) | 3.9 (≈ 7.19 µM) | –
